Patent US6833137B1, “Protection against termites” (Bayer CropScience S.A., priority 1996, dated 2004)

Tested on: termites
Test: termite perforation test on gypsum block treated with compound A, separating two chambers
Assay type: in vivo
Conditions: after 21 days; gypsum block sprayed on both faces, 0.05 g/m^2 of compound A; 160 termites in upper chamber
From the text: A gypsum block is used which has a surface area of 30 cm^2 and a thickness of 0.8 cm and is covered on both its face with cardboard having a relative density of […] and a thickness of 0.2 mm.
A solution of compound A in propylene glycol is sprayed over both faces of this block in an amount such that the gypsum block contains 0.05 g/m^2 of compound A.
Two vertical cylindrical chambers with a diameter of 5 cm are separated using the gypsum block thus treated. The upper chamber comprises 160 termites placed in damp compost. The lower chamber comprises a piece of wood placed in moistened sand.
After 21 days, a mortality rate equal to 100% is observed.

Compound `N#Cc1nn(-c2c(Cl)cc(C(F)(F)F)cc2Cl)c(N)c1[S+]([O-])C(F)(F)F` (stereo not shown) [compound A, 1-[2,6-Cl2-4-CF3phenyl]-3-CN-4-[SO—CF3]-5-NH2pyrazole] has a mortality rate of 100%.
